Laboratory results published in US20050197383A1, “Quaternary ammonium compounds and their use as anti-tussive agents” (UCB Farchim S.A., priority 1999, published 2005).

System: citric acid-induced cough responses
Assay: citric acid-induced cough in conscious guinea-pigs (aerosol pre-treatment)
Type: in vivo, guinea-pig
Details: aerosol 10.0 mg/ml pre-treatment immediately before citric acid (1M) exposure; 15 minute observation period
Source text: The following method is one of the general methods available to determine the antitussive activity of the compounds of the present invention.
Male albino Dunkin-Hartley strain guinea-pigs (weight 300-400 g) can be obtained from various commercial suppliers.
The method is a modification of that described by Adcock J. J., Schneider C. and Smith T. W., “Effects of Morphine and a Novel Opioid Pentapeptide BW443C, on Cough, Nociception and Ventilation in the Unanaesthetized Guinea-pig”, Br. J. Pharmacol., 93, 93-100 (1988). […]
Cylinder air is introduced into the exposure chamber at a flow rate of 1 liter/min, maintained by a needle valve and monitored by a rotameter. […]
Cough responses are induced by exposure to an aerosol of citric acid (1M) for 10 minutes. Animals are continuously monitored by trained observer, and the number of coughs are counted during a 15 minute period from commencement of the citric acid aerosol administration. […]
The three types of response are differentiated primarily by sound and visual observation. […] Each cough is marked on the Grass polygraph paper trace, and from these record numbers, frequency and time of onset of coughs are determined. […]
Quantities of drugs are weighed out and dissolved in a vehicle. […] The sequence of pre-treatment administration is determined according to a 4×4 Latin Square design. […]

CC(C)[N+](C)(C)CC(O)COc1cccc2ccccc12.[I-] (stereo not shown) [N,N-dimethyl-propranolol iodide, 2-Hydroxy-N-isopropyl-N,N-dimethyl-3-(1-naphthyloxy)propan-1-aminium iodide]
inhibition of cough responses compared with vehicle (saline) pre-treated guinea pigs: 50-70%
